Columns and labels:
[1] = target: T1, Muscarinic acetylcholine receptor M5 (Homo sapiens, UniProt P08912); assay type: cell membranes, CHO-K1, Membrane; settings: for Ki: read-out: Ki; as to all read-outs here: in other assays of this panel Not Active means under 50% inhibition at 10 µM
T1 sequence (P08912 whole entry): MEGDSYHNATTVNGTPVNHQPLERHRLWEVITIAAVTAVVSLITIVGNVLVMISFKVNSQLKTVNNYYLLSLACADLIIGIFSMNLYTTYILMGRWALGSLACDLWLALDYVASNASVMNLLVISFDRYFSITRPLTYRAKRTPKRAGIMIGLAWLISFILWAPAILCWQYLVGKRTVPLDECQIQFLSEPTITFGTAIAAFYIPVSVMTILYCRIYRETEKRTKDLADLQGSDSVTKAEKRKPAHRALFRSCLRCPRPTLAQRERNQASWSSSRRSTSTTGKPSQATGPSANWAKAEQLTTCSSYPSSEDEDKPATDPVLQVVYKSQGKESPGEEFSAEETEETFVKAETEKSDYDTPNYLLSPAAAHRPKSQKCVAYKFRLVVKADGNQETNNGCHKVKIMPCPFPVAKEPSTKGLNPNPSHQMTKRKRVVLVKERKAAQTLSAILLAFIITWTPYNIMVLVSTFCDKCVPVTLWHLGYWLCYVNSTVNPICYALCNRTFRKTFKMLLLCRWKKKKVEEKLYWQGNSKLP

[2] = target: Cytochrome P450 2C9 (Homo sapiens, UniProt P11712); settings: bti-tn-5b1-4; also: in other assays of this panel Not Active means under 50% inhibition at 10 µM
[3] = target: Protein phosphatase 3 catalytic subunit alpha (Homo sapiens, UniProt Q08209); parameters: species or system Escherichia coli;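 also: inhibition of calcineurin (PP2B) enzyme activity, measured with DiFMUP as the substrate; in other assays of this panel Not Active means under 50% inhibition at 10 µM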
[4] = target: Adenosine receptor A2a (Homo sapiens, UniProt P29274); assay: DRUGMATRIX: Adenosine A2A radioligand binding (ligand: […]); assay type: cell membranes, Membrane; settings: hek293; Not Active = under 50% inhibition at 10 µM
[5] = target: T2, Alpha-1B adrenergic receptor (Rattus norvegicus, UniProt P15823); assay: DRUGMATRIX: Alpha-1B adrenergic receptor radioligand binding (ligand: prazosin); assay type: cell membranes, Wistar, Liver, Membrane; settings: Not Active = under 50% inhibition at 10 µM
T2 sequence (P15823 whole entry): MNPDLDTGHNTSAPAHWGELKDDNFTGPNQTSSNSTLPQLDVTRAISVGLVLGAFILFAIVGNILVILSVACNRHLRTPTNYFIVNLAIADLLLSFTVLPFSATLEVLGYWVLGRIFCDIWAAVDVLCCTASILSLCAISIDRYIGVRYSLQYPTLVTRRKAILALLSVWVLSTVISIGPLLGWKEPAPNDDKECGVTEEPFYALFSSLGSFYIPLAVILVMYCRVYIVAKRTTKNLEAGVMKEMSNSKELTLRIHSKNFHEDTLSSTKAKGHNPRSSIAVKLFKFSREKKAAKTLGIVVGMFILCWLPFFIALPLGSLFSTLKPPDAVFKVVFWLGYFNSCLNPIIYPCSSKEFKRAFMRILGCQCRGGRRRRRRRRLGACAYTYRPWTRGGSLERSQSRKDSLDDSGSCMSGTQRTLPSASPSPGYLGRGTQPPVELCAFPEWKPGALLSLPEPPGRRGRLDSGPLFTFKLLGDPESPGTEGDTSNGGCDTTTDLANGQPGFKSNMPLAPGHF

[6] = DRUGMATRIX: Glutamate, Kainate radioligand binding (ligand: [3H] Kainic acid); assay type: cell membranes, Rattus norvegicus, Wistar, Brain, Membrane; settings: Not Active = under 50% inhibition at 10 µM
[7] = DRUGMATRIX: Calcium Channel Type L, Dihydropyridine radioligand binding (ligand: [3H] Nitrendipine); assay type: cell membranes, Rattus norvegicus, Wistar, Cerebral cortex, Membrane; settings: Not Active = under 50% inhibition at 10 µM

Sequence of Cytochrome P450 2C9 (P11712 whole entry): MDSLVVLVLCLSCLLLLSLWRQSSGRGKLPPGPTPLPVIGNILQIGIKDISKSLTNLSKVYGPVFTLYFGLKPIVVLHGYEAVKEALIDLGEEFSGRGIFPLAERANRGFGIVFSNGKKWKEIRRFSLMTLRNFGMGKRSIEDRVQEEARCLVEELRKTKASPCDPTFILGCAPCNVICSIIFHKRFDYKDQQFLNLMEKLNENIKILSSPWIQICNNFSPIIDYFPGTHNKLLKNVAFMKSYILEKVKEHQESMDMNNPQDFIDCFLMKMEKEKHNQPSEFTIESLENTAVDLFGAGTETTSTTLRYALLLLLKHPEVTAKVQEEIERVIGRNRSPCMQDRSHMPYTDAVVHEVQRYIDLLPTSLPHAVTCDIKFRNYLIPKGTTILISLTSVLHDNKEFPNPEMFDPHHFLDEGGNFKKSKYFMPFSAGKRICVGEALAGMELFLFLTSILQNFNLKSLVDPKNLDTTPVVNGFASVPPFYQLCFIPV
Sequence of Adenosine receptor A2a (P29274 whole entry): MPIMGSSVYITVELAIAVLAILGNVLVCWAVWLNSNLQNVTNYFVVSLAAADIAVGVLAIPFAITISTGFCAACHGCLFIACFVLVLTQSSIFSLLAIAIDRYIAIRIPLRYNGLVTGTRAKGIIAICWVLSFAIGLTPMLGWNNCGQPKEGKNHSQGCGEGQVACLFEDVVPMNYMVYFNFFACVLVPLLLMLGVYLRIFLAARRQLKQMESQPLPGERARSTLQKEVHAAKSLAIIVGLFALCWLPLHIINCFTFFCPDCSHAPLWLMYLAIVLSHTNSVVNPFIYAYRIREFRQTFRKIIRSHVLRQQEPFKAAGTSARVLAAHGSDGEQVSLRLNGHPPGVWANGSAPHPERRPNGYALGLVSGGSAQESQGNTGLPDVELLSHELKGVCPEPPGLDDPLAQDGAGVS

SMILES | IC50 ([1]; cho-k1) | IC50 [2] | Ki [2] | IC50 [3] | IC50 [4] | IC50 [5] | IC50 [6] | Ki [6] | IC50 [7] | Ki [7] | IC50 ([1]; read-out: IC50) [nM] | Ki [1] [nM] | IC50 ([7]; read-out: IC50) [nM] | Ki ([7]; read-out: Ki) [nM] | IC50 ([3]; read-out: IC50) [nM]
CC(C)(C)NC(=O)[C@@H]1C[C@@H]2CCCC[C@@H]2CN1C[C@@H](O)[C@H](Cc1ccccc1)NC(=O)[C@H](CC(N)=O)NC(=O)c1ccc2ccccc2n1 | Not Active | Not Active | Not Active | Not Active | Not Active | Not Active | Not Active | Not Active | Not Active | Not Active |  |  |  |  | 
CC(=O)[C@@]1(O)CC[C@H]2[C@@H]3C[C@H](C)C4=CC(=O)CC[C@]4(C)[C@H]3CC[C@@]21C | Not Active | Not Active | Not Active | Not Active | Not Active | Not Active | Not Active | Not Active | Not Active | Not Active |  |  |  |  | 
N[C@@H](Cc1ccc(N(CCCl)CCCl)cc1)C(=O)O | Not Active | Not Active | Not Active | Not Active | Not Active | Not Active | Not Active | Not Active | Not Active | Not Active |  |  |  |  | 
CCCCc1oc2ccccc2c1C(=O)c1cc(I)c(OCCN(CC)CC)c(I)c1 [AMIODARONE] |  |  |  | Not Active | Not Active |  |  |  |  |  | 1500 | 1080 |  |  | 
OCCN(CCO)c1nc(N2CCCCC2)c2nc(N(CCO)CCO)nc(N3CCCCC3)c2n1 [DIPYRIDAMOLE] | Not Active |  |  | Not Active | Not Active | Not Active | Not Active | Not Active | Not Active | Not Active |  |  |  |  | 
Cc1oncc1C(=O)Nc1ccc(C(F)(F)F)cc1 [LEFLUNOMIDE] | Not Active | Not Active | Not Active | Not Active | Not Active | Not Active | Not Active | Not Active | Not Active | Not Active |  |  |  |  | 
c1ccc([C@H]2CN3CCSC3=N2)cc1 [LEVAMISOLE] | Not Active | Not Active | Not Active | Not Active | Not Active | Not Active | Not Active | Not Active | Not Active | Not Active |  |  |  |  | 
N[C@@H](Cc1ccc(O)c(O)c1)C(=O)O [LEVODOPA] | Not Active | Not Active | Not Active | Not Active | Not Active | Not Active | Not Active | Not Active | Not Active | Not Active |  |  |  |  | 
N[C@@H](Cc1cc(I)c(Oc2ccc(O)c(I)c2)c(I)c1)C(=O)O [LIOTHYRONINE] | Not Active |  |  | Not Active | Not Active | Not Active |  |  |  |  |  |  |  |  | 
O=NN(CCCl)C(=O)NC1CCCCC1 [LOMUSTINE] | Not Active | Not Active | Not Active | Not Active | Not Active | Not Active | Not Active | Not Active | Not Active | Not Active |  |  |  |  | 
CCOC(=O)N1CCC(=C2c3ccc(Cl)cc3CCc3cccnc32)CC1 [LORATADINE] | Not Active |  |  | Not Active | Not Active | Not Active | Not Active | Not Active | Not Active | Not Active |  |  |  |  | 
Cn1ccnc1S [METHIMAZOLE] | Not Active | Not Active | Not Active | Not Active | Not Active | Not Active | Not Active | Not Active | Not Active | Not Active |  |  |  |  | 
CC[C@@H](CO)NC(=O)[C@@H]1C=C2c3cccc4[nH]cc(c34)C[C@H]2N(C)C1 [METHYLERGONOVINE] | Not Active | Not Active | Not Active | Not Active | Not Active | Not Active | Not Active | Not Active | Not Active | Not Active |  |  |  |  | 
COc1nc(C)nc(Cl)c1NC1=NCCN1 [MOXONIDINE] | Not Active | Not Active | Not Active | Not Active | Not Active | Not Active | Not Active | Not Active | Not Active | Not Active |  |  |  |  | 
COc1c(C)c2c(c(O)c1C/C=C(\C)CCC(=O)O)C(=O)OC2 [MYCOPHENOLIC ACID] | Not Active | Not Active | Not Active | Not Active | Not Active | Not Active | Not Active | Not Active | Not Active | Not Active |  |  |  |  | 
O=c1ncn2nc(Sc3ccc(F)cc3F)ccc2c1-c1c(Cl)cccc1Cl [NEFLAMAPIMOD] | Not Active | Not Active | Not Active | Not Active | Not Active | Not Active | Not Active | Not Active |  |  |  |  | 38900 | 25000 | 
CN1CCN(CCCN2c3ccccc3Sc3ccc(Cl)cc32)CC1 [PROCHLORPERAZINE] |  | Not Active | Not Active | Not Active | Not Active |  |  |  |  |  | 220 | 158 |  |  | 
CO[C@H]1/C=C/O[C@@]2(C)Oc3c(C)c(O)c4c(O)c(c(/C=N/N5CCN(C)CC5)c(O)c4c3C2=O)NC(=O)/C(C)=C\C=C\[C@H](C)[C@H](O)[C@@H](C)[C@@H](O)[C@@H](C)[C@H](OC(C)=O)[C@@H]1C [RIFAMPIN] | Not Active |  |  | Not Active | Not Active | Not Active | Not Active | Not Active | Not Active | Not Active |  |  |  |  | 
Nc1nc2ccc(OC(F)(F)F)cc2s1 [RILUZOLE] | Not Active |  |  | Not Active | Not Active | Not Active | Not Active | Not Active | Not Active | Not Active |  |  |  |  | 
Cc1nc2n(c(=O)c1CCN1CCC(c3noc4cc(F)ccc34)CC1)CCCC2 [RISPERIDONE] | Not Active | Not Active | Not Active | Not Active | Not Active |  |  |  |  |  |  |  |  |  | 
C=CCC1(C(C)CCC)C(=O)NC(=O)NC1=O (stereo not given) [SECOBARBITAL] | Not Active | Not Active | Not Active | Not Active | Not Active | Not Active | Not Active | Not Active | Not Active | Not Active |  |  |  |  | 
C[C@@H]1CN(c2c(F)c(N)c3c(=O)c(C(=O)O)cn(C4CC4)c3c2F)C[C@H](C)N1 [SPARFLOXACIN] | Not Active | Not Active | Not Active | Not Active | Not Active | Not Active | Not Active | Not Active | Not Active | Not Active |  |  |  |  | 
CC/C(=C(\c1ccccc1)c1ccc(OCCN(C)C)cc1)c1ccccc1 [TAMOXIFEN] |  |  |  |  |  |  |  |  |  |  | 2580 | 1860 |  |  | 30600
CC(C)N1CCN(c2ccc(OCC3COC(Cn4cncn4)(c4ccc(Cl)cc4Cl)O3)cc2)CC1 (stereo not given) [TERCONAZOLE] |  | Not Active | Not Active | Not Active | Not Active |  | Not Active | Not Active | Not Active | Not Active | 4360 | 3130 |  |  | 
NC[C@H]1CC[C@H](C(=O)O)CC1 [TRANEXAMIC ACID] | Not Active |  |  | Not Active | Not Active | Not Active | Not Active | Not Active | Not Active | Not Active |  |  |  |  | 
Cc1c(C)c2c(c(C)c1O)CCC(C)(COc1ccc(CC3SC(=O)NC3=O)cc1)O2 (stereo not given) [TROGLITAZONE] | Not Active |  |  | Not Active | Not Active | Not Active | Not Active | Not Active | Not Active | Not Active |  |  |  |  | 

— ChEMBL document CHEMBL1909046, “DrugMatrix in vitro pharmacology data”
